{"source": "ChEMBL document CHEMBL3124938", "about": "“Synthesis and biological evaluation of positron emission tomography radiotracers targeting serotonin 4 receptors in brain: [18F]MNI-698 and [18F]MNI-699” (Bioorg Med Chem Lett, 2013)", "key": {"[1]": {"test": "Standardized uptake value ratio in rhesus monkey substantia nigra at 166.6 +/- 11.9 MBq, iv by PET analysis", "type": "ADME, organism-based, Macaca mulatta", "conditions": "in vivo; call rule not given here"}, "Hippocampus [2]": {"test_system": "Hippocampus", "test": "Standardized uptake value ratio in rhesus monkey hippocampus at 166.6 +/- 11.9 MBq, iv by PET analysis", "type": "ADME, organism-based, Macaca mulatta", "conditions": "in vivo"}, "[3]": {"test": "Standardized uptake value ratio in rhesus monkey globus pallidus at 166.6 +/- 11.9 MBq, iv by PET analysis", "type": "ADME, organism-based, Macaca mulatta", "conditions": "in vivo"}, "[4]": {"test": "Standardized uptake value ratio in rhesus monkey putamen at 166.6 +/- 11.9 MBq, iv by PET analysis", "type": "ADME, organism-based, Macaca mulatta", "conditions": "in vivo"}, "[5]": {"test": "Standardized uptake value ratio in rhesus monkey caudate at 166.6 +/- 11.9 MBq, iv by PET analysis", "type": "ADME, organism-based, Macaca mulatta", "conditions": "in vivo"}, "Striatum [6]": {"test_system": "Striatum", "test": "Standardized uptake value ratio in rhesus monkey striatum at 166.6 +/- 11.9 MBq, iv by PET analysis", "type": "ADME, organism-based, Macaca mulatta", "conditions": "in vivo"}, "[7]": {"test": "Drug uptake in rhesus monkey cerebellum at 166.6 +/- 11.9 MBq, iv by PET analysis", "type": "ADME, organism-based, Macaca mulatta", "conditions": "in vivo"}, "[8]": {"test": "Drug uptake in rhesus monkey temporal cortex at 166.6 +/- 11.9 MBq, iv by PET analysis", "type": "ADME, organism-based, Macaca mulatta", "conditions": "in vivo"}, "[9]": {"test": "Drug uptake in rhesus monkey parietal cortex at 166.6 +/- 11.9 MBq, iv by PET analysis", "type": "ADME, organism-based, Macaca mulatta", "conditions": "in vivo"}, "[10]": {"test": "Drug uptake in rhesus monkey occipital cortex at 166.6 +/- 11.9 MBq, iv by PET analysis", "type": "ADME, organism-based, Macaca mulatta", "conditions": "in vivo"}, "[11]": {"test": "Drug uptake in rhesus monkey frontal cortex at 166.6 +/- 11.9 MBq, iv by PET analysis", "type": "ADME, organism-based, Macaca mulatta", "conditions": "in vivo"}, "[12]": {"test": "Drug uptake in rhesus monkey thalamus at 166.6 +/- 11.9 MBq, iv by PET analysis", "type": "ADME, organism-based, Macaca mulatta", "conditions": "in vivo"}, "[13]": {"test": "Drug uptake in rhesus monkey substantia nigra at 166.6 +/- 11.9 MBq, iv by PET analysis", "type": "ADME, organism-based, Macaca mulatta", "conditions": "in vivo"}, "Hippocampus [14]": {"test_system": "Hippocampus", "test": "Drug uptake in rhesus monkey hippocampus at 166.6 +/- 11.9 MBq, iv by PET analysis", "type": "ADME, organism-based, Macaca mulatta", "conditions": "in vivo"}, "[15]": {"test": "Drug uptake in rhesus monkey globus pallidus at 166.6 +/- 11.9 MBq, iv by PET analysis", "type": "ADME, organism-based, Macaca mulatta", "conditions": "in vivo"}, "[16]": {"test": "Drug uptake in rhesus monkey putamen at 166.6 +/- 11.9 MBq, iv by PET analysis", "type": "ADME, organism-based, Macaca mulatta", "conditions": "in vivo"}, "[17]": {"test": "Drug uptake in rhesus monkey caudate at 166.6 +/- 11.9 MBq, iv by PET analysis", "type": "ADME, organism-based, Macaca mulatta", "conditions": "in vivo"}, "Striatum [18]": {"test_system": "Striatum", "test": "Drug uptake in rhesus monkey striatum at 166.6 +/- 11.9 MBq, iv by PET analysis", "type": "ADME, organism-based, Macaca mulatta", "conditions": "in vivo"}, "Brain": {"test_system": "Brain", "test": "Drug uptake in rhesus monkey brain at 166.6 +/- 11.9 MBq, iv after 20 mins by PET analysis", "type": "ADME, organism-based, Macaca mulatta", "conditions": "in vivo"}, "[19]": {"test": "Octanol-buffer partition coefficient, log D of the compound at pH 7.4 by shake flask method", "type": "physicochemical"}, "Rhesus monkey": {"test_system": "Rhesus monkey", "test": "Ex vivo receptor occupancy of 5HT4 receptor in rhesus monkey at 0.5 mg/kg", "type": "functional, Macaca mulatta"}, "[20]": {"target": "5-hydroxytryptamine receptor 4 (Cavia porcellus, UniProt O70528)", "sequence (O70528 whole entry)": "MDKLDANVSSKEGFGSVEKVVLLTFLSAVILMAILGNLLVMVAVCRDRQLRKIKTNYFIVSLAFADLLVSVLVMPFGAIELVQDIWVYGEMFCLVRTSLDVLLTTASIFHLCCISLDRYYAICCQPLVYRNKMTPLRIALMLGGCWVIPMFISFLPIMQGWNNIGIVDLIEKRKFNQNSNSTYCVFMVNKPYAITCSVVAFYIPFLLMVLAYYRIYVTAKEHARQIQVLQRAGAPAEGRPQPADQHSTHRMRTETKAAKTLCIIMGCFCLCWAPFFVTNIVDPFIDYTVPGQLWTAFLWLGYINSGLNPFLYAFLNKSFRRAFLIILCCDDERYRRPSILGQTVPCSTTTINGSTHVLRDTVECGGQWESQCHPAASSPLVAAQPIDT", "test": "Binding affinity to 5HT4 receptor in guinea pig distal colon"}, "[21]": {"target": "T1, 5-hydroxytryptamine receptor 4 (Rattus norvegicus, UniProt Q62758)", "T1 sequence (Q62758 whole entry)": "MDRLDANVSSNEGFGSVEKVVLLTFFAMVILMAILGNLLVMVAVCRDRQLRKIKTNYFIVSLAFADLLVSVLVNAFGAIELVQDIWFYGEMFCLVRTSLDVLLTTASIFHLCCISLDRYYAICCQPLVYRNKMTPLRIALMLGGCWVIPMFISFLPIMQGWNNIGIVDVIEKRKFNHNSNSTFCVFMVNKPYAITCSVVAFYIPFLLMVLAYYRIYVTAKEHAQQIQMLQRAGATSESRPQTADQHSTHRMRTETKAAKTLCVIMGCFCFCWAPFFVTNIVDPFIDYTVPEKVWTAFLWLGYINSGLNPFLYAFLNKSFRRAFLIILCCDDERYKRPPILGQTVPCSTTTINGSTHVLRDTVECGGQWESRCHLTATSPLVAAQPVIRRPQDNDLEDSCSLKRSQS", "test": "Displacement of [3H]GR113808 from 5HT4 receptor in Sprague-Dawley rat striatal membranes after 1 hr by […]", "set-up": "species or system Striatum, Membrane"}, "[22]": {"target": "T1, 5-hydroxytryptamine receptor 4", "test": "Binding affinity to 5HT4 receptor in rat striatal membranes", "type": "cell membranes, Striatum, Membrane"}, "[23]": {"target": "Serotonin 4 (5-HT4) receptor (Sus scrofa, UniProt Q6Q253)", "sequence (Q6Q253 whole entry)": "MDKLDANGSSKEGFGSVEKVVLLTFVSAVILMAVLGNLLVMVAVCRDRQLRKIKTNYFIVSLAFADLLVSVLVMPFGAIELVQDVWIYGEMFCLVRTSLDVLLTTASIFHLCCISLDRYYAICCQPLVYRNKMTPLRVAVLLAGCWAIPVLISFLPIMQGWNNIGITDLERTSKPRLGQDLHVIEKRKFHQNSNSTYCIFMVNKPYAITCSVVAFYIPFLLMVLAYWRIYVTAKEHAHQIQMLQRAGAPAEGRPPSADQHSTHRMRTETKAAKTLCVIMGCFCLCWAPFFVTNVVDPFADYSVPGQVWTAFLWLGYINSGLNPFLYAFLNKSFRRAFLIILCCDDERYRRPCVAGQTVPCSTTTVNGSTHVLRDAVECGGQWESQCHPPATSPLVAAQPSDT", "test": "Binding affinity to 5HT4 receptor in pig striatal membranes", "type": "cell membranes, Striatum, Membrane"}}, "data": [{"compound": "Nc1c(Cl)cc(C(=O)OCC2CCN(CCC[18F])CC2)c2c1OCCO2", "values": [{"measurement": "SUV", "setting": "[1]", "result": 3}, {"measurement": "SUV", "setting": "Hippocampus [2]", "result": 3}, {"measurement": "SUV", "setting": "[3]", "result": 3}, {"measurement": "SUV", "setting": "[4]", "result": 3}, {"measurement": "SUV", "setting": "[5]", "result": 3}, {"measurement": "SUV", "setting": "Striatum [6]", "result": 3}, {"measurement": "Drug uptake", "setting": "[7]", "result": "Active"}, {"measurement": "Drug uptake", "setting": "[8]", "result": "Active"}, {"measurement": "Drug uptake", "setting": "[9]", "result": "Active"}, {"measurement": "Drug uptake", "setting": "[10]", "result": "Active"}, {"measurement": "Drug uptake", "setting": "[11]", "result": "Active"}, {"measurement": "Drug uptake", "setting": "[12]", "result": "Active"}, {"measurement": "Drug uptake", "setting": "[13]", "result": "Active"}, {"measurement": "Drug uptake", "setting": "Hippocampus [14]", "result": "Active"}, {"measurement": "Drug uptake", "setting": "[15]", "result": "Active"}, {"measurement": "Drug uptake", "setting": "[16]", "result": "Active"}, {"measurement": "Drug uptake", "setting": "[17]", "result": "Active"}, {"measurement": "Drug uptake", "setting": "Striatum [18]", "result": "Active"}, {"measurement": "Drug uptake", "setting": "Brain", "result": 5.6, "unit": "%ID"}, {"measurement": "logD", "setting": "[19]", "result": 1.4}]}, {"compound": "CCCCN1CCC(COC(=O)c2cc(Cl)c(N)c3c2OCCO3)CC1", "values": [{"measurement": "Activity", "setting": "Rhesus monkey", "result": 93, "unit": "%"}, {"measurement": "Kd", "setting": "[20]", "result": 0.02, "unit": "nM"}]}, {"compound": "Nc1c(Cl)cc(C(=O)OCC2CCN(CCF)CC2)c2c1OCCO2", "values": [{"measurement": "Ki", "setting": "[21]", "result": 0.2, "unit": "nM"}]}, {"compound": "Nc1c(Cl)cc(C(=O)OCC2CCN(CCCF)CC2)c2c1OCCO2", "values": [{"measurement": "Ki", "setting": "[21]", "result": 0.07, "unit": "nM"}]}, {"compound": "CCCCN1CCC(COC(=O)c2cc(I)c(N)c3c2OCCO3)CC1", "values": [{"measurement": "Kd", "setting": "[22]", "result": 0.3, "unit": "nM"}]}, {"compound": "Nc1c(Cl)cc(C(=O)OCC2CCN(CC[18F])CC2)c2c1OCCO2", "values": [{"measurement": "SUV", "setting": "[1]", "result": 3}, {"measurement": "SUV", "setting": "Hippocampus [2]", "result": 3}, {"measurement": "SUV", "setting": "[3]", "result": 3}, {"measurement": "SUV", "setting": "[4]", "result": 3}, {"measurement": "SUV", "setting": "[5]", "result": 3}, {"measurement": "SUV", "setting": "Striatum [6]", "result": 3}, {"measurement": "Drug uptake", "setting": "[7]", "result": "Active"}, {"measurement": "Drug uptake", "setting": "[8]", "result": "Active"}, {"measurement": "Drug uptake", "setting": "[9]", "result": "Active"}, {"measurement": "Drug uptake", "setting": "[10]", "result": "Active"}, {"measurement": "Drug uptake", "setting": "[11]", "result": "Active"}, {"measurement": "Drug uptake", "setting": "[12]", "result": "Active"}, {"measurement": "Drug uptake", "setting": "[13]", "result": "Active"}, {"measurement": "Drug uptake", "setting": "Hippocampus [14]", "result": "Active"}, {"measurement": "Drug uptake", "setting": "[15]", "result": "Active"}, {"measurement": "Drug uptake", "setting": "[16]", "result": "Active"}, {"measurement": "Drug uptake", "setting": "[17]", "result": "Active"}, {"measurement": "Drug uptake", "setting": "Striatum [18]", "result": "Active"}, {"measurement": "Drug uptake", "setting": "Brain", "result": 6.6, "unit": "%ID"}, {"measurement": "logD", "setting": "[19]", "result": 1.8}]}, {"compound": "CN1CCC(COC(=O)c2cc(Cl)c(N)c3c2OCCO3)CC1", "values": [{"measurement": "Kd", "setting": "[22]", "result": 0.3, "unit": "nM"}, {"measurement": "Kd", "setting": "[23]", "result": 0.08, "unit": "nM"}]}]}
